Measurements from patent US20230127202A1, “LONG-TERM PROBIOTIC BACTERIAL STORAGE AT AMBIENT TEMPERATURE” (CORNELL UNIVERSITY, priority 2021, published 2023).

System: LGG isolates
Experiment: Antimicrobial susceptibility (MIC) test, Sensititre COMPGP1F gram-positive panel, CLSI interpretation
Assay type: cell-based, Lactobacillus rhamnosus GG
Conditions: all LGG isolates after heat treatment and storage
Procedure: Antimicrobial susceptibility or minimum inhibitory concentration (MIC) test was performed using the Sensititre® system COMPGP1F gram-positive systemic panel. The test used the Clinical and Laboratory Standards Institute (CLSI) guidelines for interpretation of MIC values. All of the isolates were examined for susceptibility to 23 antimicrobial agents included in the gram-positive panel of the National Antimicrobial Resistance Monitoring System (NARMS), including amikacin, ampicillin, augmentin, cefazolin, cefovecin, cefpodoxime, cephalothin, chloramphenicol, clindamycin, doxycycline, enrofloxacin, erythromycin, gentamicin, imipenem, marbofloxacin, minocycline, nitrofurantoin, oxacillin + 2% NaCl, penicillin, pradofloxacin, rifampin, tetracycline, trim/sulfa.

Compound | antimicrobial sensitivity of the isolates (CLSI interpretation of MIC)
CC[C@H]1OC(=O)[C@H](C)[C@@H](O[C@H]2C[C@@](C)(OC)[C@@H](O)[C@H](C)O2)[C@H](C)[C@@H](O[C@@H]2O[C@H](C)C[C@H](N(C)C)[C@H]2O)[C@](C)(O)C[C@@H](C)C(=O)[C@H](C)[C@@H](O)[C@]1(C)O [erythromycin] | susceptible
Cc1nnc(SCC2=C(C(=O)O)N3C(=O)[C@@H](NC(=O)Cn4cnnn4)[C@H]3SC2)s1 [cefazolin] | resistance
oxacillin [oxacillin + 2% NaCl] | susceptible
augmentin | susceptible
CC1(C)S[C@@H]2[C@H](NC(=O)[C@H](N)c3ccccc3)C(=O)N2[C@H]1C(=O)O [ampicillin] | intermediate sensitivity
penicillin | resistance

System: Lactobacillus rhamnosus GG (LGG, ATCC 53103)
Experiment: Bacterial survivability test (colony count) of LGG stored in food-grade oils at room temperature
Assay type: physicochemical
Conditions: under all conditions
Procedure: PBS at pH 7.4 was used as a control for each temperature. Each individual vial containing 20 mL of oil was heated to reach the desired temperature and the temperature equilibrated for 15-20 minutes. To each heated vial, 0.05 g of LGG powder was added. For prebiotic treatment, 0.05 g of inulin were added before the addition of LGG. The vial containing the oil-bacteria mixture was held at temperature for 1 minute with gentle stirring. Finally, the vial was taken out of the oil bath and cooled to room temperature over a range of 25 to 45 minutes depending on the heating treatments. As control samples, the LGG powder was added to each type of oil and PBS (pH 7.4) with the samples not heated. FIG. 1A illustrates the experimental set up for the heat treatment.
To prevent bacterial growth during storage of probiotics in aqueous solutions, oil was used as a barrier to water penetration and thus serves to preserve and prevent spoilage of the probiotic products. Before the storage of bacteria in oil, the LGG concentration in each type of oil was quantified and recorded as the initial concentration. […] The control medium was 20 mL of PBS at pH 7.4. For the control sample, 0.05 g of the bacteria were added to PBS and, after mixing, cultured on MRS agar plates. […] The survivability of the bacteria was assessed at specific time points over a year using the colony count technique. […]

Compound | effect on survival rates of the bacteria
inulin | reduced the survival rates
